In US10584159B2, “Renilla based biosensors for monitoring biomolecule localization and trafficking in cells” (The Royal Institution for the Advancement of …, priority 2014, dated 2020):
Starred links: 1 amine or outer side, 2 acyl side, 3 side chain; linkers in the order of their positions; H or OH if unused. Positions of bridges follow the written chain, without caps; N, C: chain ends. Non-standard residues stand in square brackets, D forms with d. Residues, ends and D or L forms follow the SMILES beside them. No end group written: not given here. *: point of attachment. Leu(3R-OH,Nα-propionyl) = CCC(=O)N[C@H](C(=O)*)[C@H](O)C(C)C; X1 = CC(C)[C@@H](O[*:3])[C@H](N[*:1])C(=O)[*:2]; NMeT = CN[C@H](C(=O)O)[C@@H](C)O; dPhLac = O=C(O)[C@H](O)Cc1ccccc1; NMeA = CN[C@@H](C)C(=O)O; NMeDha = C=C(NC)C(=O)O

Assays:
AT1R = molecular target: T1, AT1R (Homo sapiens, UniProt P30556); experiment: AT1R sorting to rab11 vesicles BRET (AT1R-RlucII/rGFP-rab11); format: cell-based; parameters: signal peptide-Flag-human AT1R (spFlag-AT1R); signal peptide (N); expressed in transfected cells; host or cells: HEK293SL (HEK293 for the screen)
T1 sequence (P30556 with tags, fused parts or gaps): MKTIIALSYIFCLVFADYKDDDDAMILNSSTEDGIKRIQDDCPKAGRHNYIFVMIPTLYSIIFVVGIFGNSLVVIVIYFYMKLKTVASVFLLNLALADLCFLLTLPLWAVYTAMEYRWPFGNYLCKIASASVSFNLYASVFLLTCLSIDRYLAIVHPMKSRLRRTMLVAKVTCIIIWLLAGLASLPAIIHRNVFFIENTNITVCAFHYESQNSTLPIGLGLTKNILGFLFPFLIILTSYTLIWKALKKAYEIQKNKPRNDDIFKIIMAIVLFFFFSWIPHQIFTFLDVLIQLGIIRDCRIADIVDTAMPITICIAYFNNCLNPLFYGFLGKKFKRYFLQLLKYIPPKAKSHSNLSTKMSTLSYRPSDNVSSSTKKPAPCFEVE
Experimental: BRET measurements for FIGS. 1B to 9D, 25D to 25F. The following day of transfection, cells were detached and replated onto poly-ornithine coated white 96-well plate at a density of 25,000 cells per well. The next day, cells were washed once with pre-warmed Tyrode's buffer (140 mM NaCl, 2.7 mM KCl, 1 mM CaCl2, 12 mM NaHCO3, 5.6 mM D-glucose, 0.5 mM MgCl2, 0.37 mM NaH2PO4, 25 mM HEPES, pH 7.4), and then stimulated with either various concentrations of ligands in Tyrode's buffer for the indicated time, or single concentration of ligands for various times at 37° C. For recycling experiment, after stimulating the cells with the ligands for 30 min at 37° C., they were washed either three times with ice-cold Tyrode's buffer or once with Tyrode's buffer/three times with acid (50 mM sodium citrate, pH 4.0)/two times with Tyrode's buffer. All the washing steps were performed on ice. Cells were then further incubated with Tyrode's buffer at 37° C. in a water bath for 45 min. […] Measurements were performed by using Synergy2 (BioTek®) microplate reader with a filter set of 410±80 nm and 515±30 nm for detecting the RlucII Renilla luciferase (donor) and GFP10 or rGFP (acceptor) light emissions, respectively. The BRET signal was determined by calculating the ratio of the light intensity emitted by the GFP10 or rGFP over the light intensity emitted by the RlucII. […]

Gq = experiment: RlucII-tagged Gq translocation to rGFP markers (BRET) with TPαR; format: cell-based, human; settings: 100 nM Ubo-Qic 20 min
Acetylcholine receptors = experiment: PKN-based RhoA activation BRET assay, carbachol stimulation; format: cell-based; settings: 100 nM Ubo, 100 μM carbachol 70 s
Experimental: PKN-based RhoA activation assay. For FIGS. 25B-D, HEK293SL cells were grown in DMEM supplemented with 6% fetal bovine serum (FBS) and 20 μg/ml gentamycin, at 37° C. Cells were seeded at a density of 7.5×10^5 cells per 100 mm dishes and were transiently transfected the next day with constructs encoding AT1R (3 μg) along with PKN-crib-RlucII (90 ng) and rGFP-CAAX (480 ng) using calcium phosphate method as described previously. After 24 h, cells were detached and seeded onto poly-ornithine-coated 96-well white plates at a density of 25 000 cells per well in media. The next day, cells were washed once with Tyrode's buffer and left in 80 μl of Tyrode's buffer at 37° C. When indicated, cells were treated with Ubo-Qic 100 nM for 30 min or C3 toxin for 3 μg/ml (in FIG. 25I), 4 hours at 37° C. Cell stimulation and BRET measurements were done at RT. BRET signals were monitored by addition of Coel-400a to a final concentration of 5 μM using a Synergy2 (BioTek®) microplate reader. Filter set was 410±80 nm and 515±30 nm for detecting the RlucII Renilla luciferase (donor) and rGFP (acceptor) light emission. […] BRET was measured at 37° C., using a Tristar Microplate Reader (Berthold Technologies) equipped with BRET400-GFP2/10 filter set (acceptor, 515±20 nm; and donor, 400±70 nm filters). […] BRET was measured at 37° C., using a Tristar Microplate Reader (Berthold Technologies).

Compound	effect on AngII-bound AT1R in Rab11 vesicles (AT1R; 100 nM Ubo, 100 nM AngII 30 min)	U46619 response of Gq translocation to rGFP-CAAX Hras, rGFP-CAAX CCIL and Golgi markers after Gq inhibitor (Gq)	effect on CCh-mediated response (Rho sensor) (Acetylcholine receptors)	BRET signal relative to AngII (AT1R; 100 nM SI, 1 μM DVG)
C=C1C(=O)N[C@@H](C)C(=O)N(C)[C@@H](C)C(=O)N[C@@H]([C@H](OC(=O)[C@@H](NC(=O)CC)[C@H](O)C(C)C)C(C)C)C(=O)N(C)[C@@H]([C@@H](C)OC)C(=O)O[C@H](C(C)C)[C@H](NC(C)=O)C(=O)O[C@H](Cc2ccccc2)C(=O)N1C [Ubo-QIC] (Ac-[X1][dPhLac][NMeDha]A[NMeA][X1](Leu(3R-OH,Nα-propionyl))[NMeT](Me); ester 1-C)	increased AngII-bound AT1R in Rab 4 and Rab11 vesicles	No response is observed	completely blocked	–
DRVYVHPG [DVG, [Asp^1,Val^5, Gly^8]-AngII]	–	–	–	overall higher BRET signals
